Data taken from ChEMBL document CHEMBL4765227, “Hit to lead optimization of a series of N-[4-(1,3-benzothiazol-2-yl)phenyl]acetamides as monoacylglycerol lipase inhibitors with potential anticancer activity” (Eur J Med Chem, 2016).

Key:
Assay type in all cases: functional
Conditions in all cases: read-out: GI
[1] = tested on: NCI-H226; assay: Growth inhibition of human NCI-H226 cells at 10 uM incubated for 48 hrs by sulforhodamine B assay relative to control
[2] = tested on: IGROV-1; assay: Growth inhibition of human IGROV-1 cells at 10 uM incubated for 48 hrs by sulforhodamine B assay relative to control
[3] = tested on: PC-3; assay: Growth inhibition of human PC-3 cells at 10 uM incubated for 48 hrs by sulforhodamine B assay relative to control
[4] = tested on: Hs-578T; assay: Growth inhibition of human Hs-578T cells at 10 uM incubated for 48 hrs by sulforhodamine B assay relative to control
[5] = tested on: MCF7; assay: Growth inhibition of human MCF7 cells at 10 uM incubated for 48 hrs by sulforhodamine B assay relative to control
[6] = tested on: UACC-62; assay: Growth inhibition of human UACC-62 cells at 10 uM incubated for 48 hrs by sulforhodamine B assay relative to control
[7] = tested on: MDA-MB-435; assay: Growth inhibition of human MDA-MB-435 cells at 10 uM incubated for 48 hrs by sulforhodamine B assay relative to control
[8] = tested on: K562; assay: Growth inhibition of human K562 cells at 10 uM incubated for 48 hrs by sulforhodamine B assay relative to control
[9] = tested on: HT-29; assay: Growth inhibition of human HT-29 cells at 10 uM incubated for 48 hrs by sulforhodamine B assay relative to control
[10] = tested on: SK-OV-3; assay: Growth inhibition of human SK-OV-3 cells at 10 uM incubated for 48 hrs by sulforhodamine B assay relative to control
[11] = tested on: KM12; assay: Growth inhibition of human KM12 cells at 10 uM incubated for 48 hrs by sulforhodamine B assay relative to control
[12] = tested on: UO-31; assay: Growth inhibition of human UO-31 cells at 10 uM incubated for 48 hrs by sulforhodamine B assay relative to control
[13] = tested on: MDA-MB-468; assay: Growth inhibition of human MDA-MB-468 cells at 10 uM incubated for 48 hrs by sulforhodamine B assay relative to control
[14] = tested on: SK-MEL-5; assay: Growth inhibition of human SK-MEL-5 cells at 10 uM incubated for 48 hrs by sulforhodamine B assay relative to control
[15] = tested on: A549; assay: Growth inhibition of human A549/ATCC cells at 10 uM incubated for 48 hrs by sulforhodamine B assay relative to control
[16] = tested on: SR; assay: Growth inhibition of human SR cells at 10 uM incubated for 48 hrs by sulforhodamine B assay relative to control
[17] = tested on: RXF 393; assay: Growth inhibition of human RXF 393 cells at 10 uM incubated for 48 hrs by sulforhodamine B assay relative to control
[18] = tested on: M14; assay: Growth inhibition of human M14 cells at 10 uM incubated for 48 hrs by sulforhodamine B assay relative to control
[19] = tested on: OVCAR-4; assay: Growth inhibition of human OVCAR-4 cells at 10 uM incubated for 48 hrs by sulforhodamine B assay relative to control
[20] = tested on: NCI-H23; assay: Growth inhibition of human NCI-H23 cells at 10 uM incubated for 48 hrs by sulforhodamine B assay relative to control
[21] = tested on: OVCAR-5; assay: Growth inhibition of human OVCAR-5 cells at 10 uM incubated for 48 hrs by sulforhodamine B assay relative to control
[22] = tested on: T47D; assay: Growth inhibition of human T47D cells at 10 uM incubated for 48 hrs by sulforhodamine B assay relative to control
[23] = tested on: MDA-MB-231; assay: Growth inhibition of human MDA-MB-231 cells at 10 uM incubated for 48 hrs by sulforhodamine B assay relative to control
[24] = tested on: TK-10; assay: Growth inhibition of human TK-10 cells at 10 uM incubated for 48 hrs by sulforhodamine B assay relative to control
[25] = tested on: DU-145; assay: Growth inhibition of human DU-145 cells at 10 uM incubated for 48 hrs by sulforhodamine B assay relative to control
[26] = tested on: UACC-257; assay: Growth inhibition of human UACC-257 cells at 10 uM incubated for 48 hrs by sulforhodamine B assay relative to control
[27] = tested on: ACHN; assay: Growth inhibition of human ACHN cells at 10 uM incubated for 48 hrs by sulforhodamine B assay relative to control
[28] = tested on: SF-295; assay: Growth inhibition of human SF-295 cells at 10 uM incubated for 48 hrs by sulforhodamine B assay relative to control
[29] = tested on: Malme-3M; assay: Growth inhibition of human Malme-3M cells at 10 uM incubated for 48 hrs by sulforhodamine B assay relative to control
[30] = tested on: BT-549; assay: Growth inhibition of human BT-549 cells at 10 uM incubated for 48 hrs by sulforhodamine B assay relative to control
[31] = tested on: HCC 2998; assay: Growth inhibition of human HCC 2998 cells at 10 uM incubated for 48 hrs by sulforhodamine B assay relative to control
[32] = tested on: NCI-H322M; assay: Growth inhibition of human NCI-H322M cells at 10 uM incubated for 48 hrs by sulforhodamine B assay relative to control
[33] = tested on: RPMI-8226; assay: Growth inhibition of human RPMI-8226 cells at 10 uM incubated for 48 hrs by sulforhodamine B assay relative to control
[34] = tested on: 786-0; assay: Growth inhibition of human 786-0 cells at 10 uM incubated for 48 hrs by sulforhodamine B assay relative to control
[35] = tested on: HL-60(TB); assay: Growth inhibition of human HL-60(TB) cells at 10 uM incubated for 48 hrs by sulforhodamine B assay relative to control
[36] = tested on: SN12C; assay: Growth inhibition of human SN12C cells at 10 uM incubated for 48 hrs by sulforhodamine B assay relative to control
[37] = tested on: SF-268; assay: Growth inhibition of human SF-268 cells at 10 uM incubated for 48 hrs by sulforhodamine B assay relative to control
[38] = tested on: MOLT-4; assay: Growth inhibition of human MOLT-4 cells at 10 uM incubated for 48 hrs by sulforhodamine B assay relative to control
[39] = tested on: NCI-H522; assay: Growth inhibition of human NCI-H522 cells at 10 uM incubated for 48 hrs by sulforhodamine B assay relative to control
[40] = tested on: SNB-19; assay: Growth inhibition of human SNB-19 cells at 10 uM incubated for 48 hrs by sulforhodamine B assay relative to control
[41] = tested on: OVCAR-3; assay: Growth inhibition of human OVCAR-3 cells at 10 uM incubated for 48 hrs by sulforhodamine B assay relative to control
[42] = tested on: U-251; assay: Growth inhibition of human U-251 cells at 10 uM incubated for 48 hrs by sulforhodamine B assay relative to control
[43] = tested on: SF-539; assay: Growth inhibition of human SF-539 cells at 10 uM incubated for 48 hrs by sulforhodamine B assay relative to control
[44] = tested on: OVCAR-8; assay: Growth inhibition of human OVCAR-8 cells at 10 uM incubated for 48 hrs by sulforhodamine B assay relative to control

O=C(CNc1nnc(-c2ccc(Cl)cc2)o1)Nc1ccc(-c2nc3ccccc3s2)cc1
inhibition of growth at 10 µM [1]: 17.1% | inhibition of growth at 10 µM [2]: 5.85% | inhibition of growth at 10 µM [3]: 11.4% | inhibition of growth at 10 µM [4]: 3.06% | inhibition of growth at 10 µM [5]: 65.5% | inhibition of growth at 10 µM [6]: 13.9% | inhibition of growth at 10 µM [7]: 2.95% | inhibition of growth at 10 µM [8]: 14.4% | inhibition of growth at 10 µM [9]: 4.3% | inhibition of growth at 10 µM [10]: -16.6% | inhibition of growth at 10 µM [11]: 2.99% | inhibition of growth at 10 µM [12]: 26.7% | inhibition of growth at 10 µM [13]: 110% | inhibition of growth at 10 µM [14]: 7.93% | inhibition of growth at 10 µM [15]: 4.18% | inhibition of growth at 10 µM [16]: 28.2% | inhibition of growth at 10 µM [17]: -0.2% | inhibition of growth at 10 µM [18]: -1.85% | inhibition of growth at 10 µM [19]: -3.22% | inhibition of growth at 10 µM [20]: 11.3% | inhibition of growth at 10 µM [21]: -16.4% | inhibition of growth at 10 µM [22]: 20.1% | inhibition of growth at 10 µM [23]: 1.2% | inhibition of growth at 10 µM [24]: 8.25% | inhibition of growth at 10 µM [25]: 1.53% | inhibition of growth at 10 µM [26]: -2.8% | inhibition of growth at 10 µM [27]: -12% | inhibition of growth at 10 µM [28]: -1.52% | inhibition of growth at 10 µM [29]: 11.3% | inhibition of growth at 10 µM [30]: 13% | inhibition of growth at 10 µM [31]: 6.46% | inhibition of growth at 10 µM [32]: 4.86% | inhibition of growth at 10 µM [33]: 4.61% | inhibition of growth at 10 µM [34]: -1.02% | inhibition of growth at 10 µM [35]: 6.27% | inhibition of growth at 10 µM [36]: 5.48% | inhibition of growth at 10 µM [37]: 22.6% | inhibition of growth at 10 µM [38]: 66.8% | inhibition of growth at 10 µM [39]: 22.9% | inhibition of growth at 10 µM [40]: 9.4% | inhibition of growth at 10 µM [41]: 2.27% | inhibition of growth at 10 µM [42]: 18.4% | inhibition of growth at 10 µM [43]: 2.97% | inhibition of growth at 10 µM [44]: -2.95%

COc1ccc(NCC(=O)Nc2ccc(-c3nc4ccccc4s3)cc2)cc1
inhibition of growth at 10 µM [1]: 5.16% | inhibition of growth at 10 µM [2]: 7.74% | inhibition of growth at 10 µM [3]: 12.9% | inhibition of growth at 10 µM [4]: 2.83% | inhibition of growth at 10 µM [5]: 35% | inhibition of growth at 10 µM [6]: 0.37% | inhibition of growth at 10 µM [7]: -7.51% | inhibition of growth at 10 µM [8]: 11.6% | inhibition of growth at 10 µM [9]: -8.15% | inhibition of growth at 10 µM [10]: -7.58% | inhibition of growth at 10 µM [11]: 3.03% | inhibition of growth at 10 µM [12]: 28.1% | inhibition of growth at 10 µM [13]: 5.6% | inhibition of growth at 10 µM [14]: 2.74% | inhibition of growth at 10 µM [15]: 10.5% | inhibition of growth at 10 µM [16]: 15.6% | inhibition of growth at 10 µM [17]: -1.89% | inhibition of growth at 10 µM [18]: 0.16% | inhibition of growth at 10 µM [19]: 12.8% | inhibition of growth at 10 µM [20]: 14.3% | inhibition of growth at 10 µM [21]: 1.84% | inhibition of growth at 10 µM [22]: 31.2% | inhibition of growth at 10 µM [23]: 27.5% | inhibition of growth at 10 µM [24]: -8.6% | inhibition of growth at 10 µM [25]: 0.77% | inhibition of growth at 10 µM [26]: -3.88% | inhibition of growth at 10 µM [27]: -3.5% | inhibition of growth at 10 µM [28]: 3.2% | inhibition of growth at 10 µM [29]: -26% | inhibition of growth at 10 µM [30]: 15.2% | inhibition of growth at 10 µM [31]: 3.49% | inhibition of growth at 10 µM [32]: 3% | inhibition of growth at 10 µM [33]: 13.6% | inhibition of growth at 10 µM [34]: 14.8% | inhibition of growth at 10 µM [35]: 20.9% | inhibition of growth at 10 µM [36]: 5.87% | inhibition of growth at 10 µM [37]: 10.5% | inhibition of growth at 10 µM [38]: 33.7% | inhibition of growth at 10 µM [39]: 5.02% | inhibition of growth at 10 µM [40]: 11.4% | inhibition of growth at 10 µM [41]: 3.44% | inhibition of growth at 10 µM [42]: 19.1% | inhibition of growth at 10 µM [43]: 3.41% | inhibition of growth at 10 µM [44]: 4.93%
